These results are taken from patent US10870647B2, “Imidazopyridine derivative, method for preparing same, and pharmaceutical composition containing same as active ingredient for preventing or treating cancer” (DAEGU-GYEONGBUK MEDICAL INNOVATION FOUNDATION, priority 2016, dated 2020).

Assay in all cases: Kinase selectivity, scanMAX Kinase assay panel (DiscoverX), % control at 1 uM
Type in all cases: binding

Assay [1] concerns the target T1, scanMAX Kinase assay panel (Homo sapiens, UniProt P12931).
T1 construct: purchased DiscoverX
To be noted: SRC; 1 uM; read-out: Percent Control (%). In short, it runs like this: (§1)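 A single concentration of 1 uM, in DMSO, is applied across the kinase panel. Activity against an individual enzyme is assigned where % control is less than 35.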

For assay [2], the target named is T2, scanMAX Kinase assay panel (Homo sapiens, UniProt Q9UEE5).
T2 construct: purchased DiscoverX
T2 sequence (Q9UEE5 1-414): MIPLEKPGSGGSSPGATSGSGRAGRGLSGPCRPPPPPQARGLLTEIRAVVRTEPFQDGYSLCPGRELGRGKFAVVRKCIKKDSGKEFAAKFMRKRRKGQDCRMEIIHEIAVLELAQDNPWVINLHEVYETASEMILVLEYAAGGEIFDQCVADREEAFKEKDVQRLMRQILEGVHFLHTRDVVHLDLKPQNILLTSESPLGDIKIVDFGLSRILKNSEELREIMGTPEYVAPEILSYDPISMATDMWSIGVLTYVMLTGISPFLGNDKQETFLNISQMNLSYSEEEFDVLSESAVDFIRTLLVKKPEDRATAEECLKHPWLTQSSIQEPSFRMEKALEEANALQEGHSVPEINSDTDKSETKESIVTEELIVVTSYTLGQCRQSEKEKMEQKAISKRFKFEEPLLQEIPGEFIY
Conditions: DRAK1; 1 uM; read-out: Percent Control (%). The method, boiled down: as §1

Assay [3] has as its target T3, scanMAX Kinase assay panel (Homo sapiens, UniProt Q9Y6M4).
T3 construct: purchased DiscoverX
To be noted: CSNK1G3; 1 uM; read-out: Percent Control (%). In short, it runs like this:
as §1

Assay [4] concerns the target T4, scanMAX Kinase assay panel (Homo sapiens, UniProt P54756).
T4 construct: purchased DiscoverX
Conditions: EPHA5; 1 uM; read-out: Percent Control (%). In short, it runs like this:
as §1

Assay [5] deals with T5, scanMAX Kinase assay panel (Homo sapiens, UniProt Q96D53).
T5 construct: purchased DiscoverX
T5 sequence (Q96D53 1-544): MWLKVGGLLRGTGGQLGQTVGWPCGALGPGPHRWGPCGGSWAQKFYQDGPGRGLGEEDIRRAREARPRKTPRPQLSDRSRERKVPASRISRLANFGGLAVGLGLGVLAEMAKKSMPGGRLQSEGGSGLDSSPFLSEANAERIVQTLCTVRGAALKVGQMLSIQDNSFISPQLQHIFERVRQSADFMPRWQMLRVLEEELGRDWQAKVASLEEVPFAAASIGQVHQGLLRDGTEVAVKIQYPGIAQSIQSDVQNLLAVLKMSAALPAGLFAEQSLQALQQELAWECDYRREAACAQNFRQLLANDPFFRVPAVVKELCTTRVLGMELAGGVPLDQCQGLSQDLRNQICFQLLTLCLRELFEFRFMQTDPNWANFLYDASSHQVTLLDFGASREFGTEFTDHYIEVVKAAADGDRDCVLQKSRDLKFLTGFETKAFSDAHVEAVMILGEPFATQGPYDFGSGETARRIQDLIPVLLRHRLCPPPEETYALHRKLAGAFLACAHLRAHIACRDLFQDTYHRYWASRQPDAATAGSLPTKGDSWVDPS
To be noted: ADCK4; 1 uM; read-out: Percent Control (%). The method, boiled down:
as §1

Assay [6] addresses T6, scanMAX Kinase assay panel (Homo sapiens, UniProt Q6ZWH5).
T6 construct: purchased DiscoverX
T6 sequence (Q6ZWH5 1-1172): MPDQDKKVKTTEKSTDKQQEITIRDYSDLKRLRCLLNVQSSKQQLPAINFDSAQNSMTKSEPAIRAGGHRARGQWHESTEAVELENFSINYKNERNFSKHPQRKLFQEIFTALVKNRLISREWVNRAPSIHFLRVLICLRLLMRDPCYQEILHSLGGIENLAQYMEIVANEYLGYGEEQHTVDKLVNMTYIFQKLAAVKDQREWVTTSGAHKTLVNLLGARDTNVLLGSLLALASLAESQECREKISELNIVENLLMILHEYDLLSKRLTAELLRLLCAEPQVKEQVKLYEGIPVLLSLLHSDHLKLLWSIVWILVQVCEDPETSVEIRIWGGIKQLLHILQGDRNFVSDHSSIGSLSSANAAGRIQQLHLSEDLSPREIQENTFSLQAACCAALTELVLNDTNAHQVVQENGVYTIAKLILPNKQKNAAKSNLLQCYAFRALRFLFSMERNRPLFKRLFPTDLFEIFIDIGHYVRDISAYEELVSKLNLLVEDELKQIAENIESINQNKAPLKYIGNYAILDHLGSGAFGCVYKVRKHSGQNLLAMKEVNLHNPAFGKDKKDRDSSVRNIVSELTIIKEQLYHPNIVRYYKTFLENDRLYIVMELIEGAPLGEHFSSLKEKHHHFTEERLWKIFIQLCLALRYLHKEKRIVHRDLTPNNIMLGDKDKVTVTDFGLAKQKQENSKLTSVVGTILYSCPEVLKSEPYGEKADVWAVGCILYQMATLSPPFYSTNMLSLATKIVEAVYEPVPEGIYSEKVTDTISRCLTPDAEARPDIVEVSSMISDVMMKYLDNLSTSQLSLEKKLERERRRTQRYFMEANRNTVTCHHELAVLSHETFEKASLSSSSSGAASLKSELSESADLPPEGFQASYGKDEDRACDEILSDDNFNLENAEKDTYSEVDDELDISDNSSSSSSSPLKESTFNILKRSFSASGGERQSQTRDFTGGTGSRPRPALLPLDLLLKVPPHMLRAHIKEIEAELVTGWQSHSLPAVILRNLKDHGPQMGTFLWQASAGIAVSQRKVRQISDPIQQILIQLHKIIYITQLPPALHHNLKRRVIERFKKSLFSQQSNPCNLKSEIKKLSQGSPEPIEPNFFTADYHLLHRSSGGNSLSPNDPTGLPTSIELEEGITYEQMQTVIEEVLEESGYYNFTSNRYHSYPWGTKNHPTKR
Conditions: NEK10; 1 uM; read-out: Percent Control (%). The method, boiled down:
as §1

T4 sequence (P54756 25-1037): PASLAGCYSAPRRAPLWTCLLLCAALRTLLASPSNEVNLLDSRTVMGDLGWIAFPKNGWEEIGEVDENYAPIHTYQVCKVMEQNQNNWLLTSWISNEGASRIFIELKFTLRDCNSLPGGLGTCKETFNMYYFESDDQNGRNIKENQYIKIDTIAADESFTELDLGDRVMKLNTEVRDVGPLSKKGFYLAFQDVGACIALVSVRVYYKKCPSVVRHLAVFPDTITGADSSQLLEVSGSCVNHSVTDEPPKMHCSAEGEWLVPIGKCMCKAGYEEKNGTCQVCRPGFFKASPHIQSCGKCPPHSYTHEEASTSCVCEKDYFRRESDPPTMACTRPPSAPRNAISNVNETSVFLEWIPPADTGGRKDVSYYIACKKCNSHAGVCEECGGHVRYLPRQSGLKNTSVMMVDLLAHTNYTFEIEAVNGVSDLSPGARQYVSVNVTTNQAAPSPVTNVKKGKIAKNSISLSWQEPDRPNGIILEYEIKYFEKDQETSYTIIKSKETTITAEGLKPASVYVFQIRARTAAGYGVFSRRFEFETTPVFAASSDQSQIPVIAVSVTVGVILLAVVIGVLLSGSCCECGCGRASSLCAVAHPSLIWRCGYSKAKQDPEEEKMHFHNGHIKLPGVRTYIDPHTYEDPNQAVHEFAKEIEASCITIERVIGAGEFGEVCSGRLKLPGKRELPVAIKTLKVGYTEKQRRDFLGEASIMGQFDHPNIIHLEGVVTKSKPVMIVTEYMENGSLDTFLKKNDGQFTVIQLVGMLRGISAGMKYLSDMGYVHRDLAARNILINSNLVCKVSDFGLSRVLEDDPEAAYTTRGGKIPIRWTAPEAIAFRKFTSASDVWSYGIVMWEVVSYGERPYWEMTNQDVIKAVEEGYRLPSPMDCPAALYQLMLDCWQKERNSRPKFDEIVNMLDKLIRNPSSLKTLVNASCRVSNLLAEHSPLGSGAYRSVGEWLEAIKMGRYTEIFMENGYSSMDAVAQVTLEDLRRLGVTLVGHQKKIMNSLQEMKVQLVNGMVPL
T3 sequence (Q9Y6M4 whole entry): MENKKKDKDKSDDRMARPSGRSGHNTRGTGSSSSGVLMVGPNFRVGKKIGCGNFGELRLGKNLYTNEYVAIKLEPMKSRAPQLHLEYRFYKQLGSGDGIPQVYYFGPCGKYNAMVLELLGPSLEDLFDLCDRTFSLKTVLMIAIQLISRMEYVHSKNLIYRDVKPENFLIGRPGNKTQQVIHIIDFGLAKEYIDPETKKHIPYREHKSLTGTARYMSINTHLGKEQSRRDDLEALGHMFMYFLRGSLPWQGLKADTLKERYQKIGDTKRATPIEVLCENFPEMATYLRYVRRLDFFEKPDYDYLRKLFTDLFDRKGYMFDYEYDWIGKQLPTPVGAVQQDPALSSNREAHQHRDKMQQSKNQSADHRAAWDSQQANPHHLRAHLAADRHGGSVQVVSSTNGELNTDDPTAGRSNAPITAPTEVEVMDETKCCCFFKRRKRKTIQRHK
T1 sequence (P12931 whole entry): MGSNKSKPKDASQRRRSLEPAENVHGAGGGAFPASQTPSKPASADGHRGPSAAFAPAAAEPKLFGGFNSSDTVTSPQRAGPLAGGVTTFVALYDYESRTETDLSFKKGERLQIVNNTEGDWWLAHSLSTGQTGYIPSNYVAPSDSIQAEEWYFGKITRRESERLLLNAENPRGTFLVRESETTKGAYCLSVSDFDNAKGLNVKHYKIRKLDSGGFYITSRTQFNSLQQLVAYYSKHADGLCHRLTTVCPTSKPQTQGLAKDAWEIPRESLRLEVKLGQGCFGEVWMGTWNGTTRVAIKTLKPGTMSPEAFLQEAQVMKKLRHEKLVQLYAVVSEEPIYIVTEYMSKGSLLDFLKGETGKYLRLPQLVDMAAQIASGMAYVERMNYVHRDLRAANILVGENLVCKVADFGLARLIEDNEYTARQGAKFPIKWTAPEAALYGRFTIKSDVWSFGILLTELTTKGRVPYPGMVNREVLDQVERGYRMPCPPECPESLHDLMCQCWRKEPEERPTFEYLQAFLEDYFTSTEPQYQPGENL

`Cc1ccc(C(=O)Nc2ccc(CN3CCN(C)CC3)c(C(F)(F)F)c2)cc1C#Cc1cnc2c(Nc3cnn(C)c3)cccn12` [Example 1, 4-methyl-3-((8-((1-methyl-1H-pyrazol-4-yl)amino)imidazo[1,2-a]pyridin-3-yl)ethynyl)-N-(4-((4-methylpiperazin-1-yl)methyl)-3-(trifluoromethyl)phenyl)benzamide]: the remaining binding at 1 µM in assay [1] stood at 0%; in assay [2], 98%; in assay [3] it was 100%; in assay [4], 1%; in assay [5], 88%; in assay [6], 100%.

`Cc1ccc(NC(=O)C2(C(=O)Nc3ccc(F)cc3)CC2)cc1C#Cc1cnc2c(Nc3cnn(C(C)C)c3)cccn12` [Example 78]: the remaining binding at 1 µM is 73% in assay [1]; 100% in assay [2]; 100% in assay [3]; 100% in assay [4]; 100% in assay [5]; 100% in assay [6].

For `Cc1cn(-c2cc(NC(=O)c3ccc(C)c(C#Cc4cnc5c(Nc6cnn(C)c6)cccn45)c3)cc(C(F)(F)F)c2)cn1` [Example 12, 4-methyl-N-(3-(4-methyl-1H-imidazol-1-yl)-5-(trifluoromethyl)phenyl)-3-((8-((1-methyl-1H-pyrazol-4-yl)amino)imidazo[1,2-a]pyridin-3-yl)ethynyl)benzamide], the remaining binding at 1 µM in assay [1] amounted to 1%; in assay [2], 100%; in assay [3], 84%; in assay [4], 31%; in assay [5], 95%; in assay [6], 100%.
